Source: ChEMBL document CHEMBL1201862, “PubChem BioAssay data set” (2004)
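1) Cells in 96-well plates. 2) Compound, 48 h, 5 concentrations. 3) Linear interpolation between surrounding doses. 4) Unreached endpoint = highest concentration. GI50 = concentration required for 50% inhibition of growth.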 Active and inactive are the calls of the source. Cut-off read from the data, not from the text of the source: active = GI50 up to about 1.1 µM and inactive = higher.

How the values were obtained:
Test in all cases: growth of human tumour cells (NCI), 48 h
786-0 = system: 786-0
TK-10 = system: TK-10
RXF 393 = system: RXF 393
M14 = system: M14
KM12 = system: KM12
ACHN = system: ACHN
U-251 = system: U-251
HCT-116 = system: HCT-116
SF-539 = system: SF-539
NCI-H23 = system: NCI-H23
SK-MEL-2 = system: SK-MEL-2
SNB-75 = system: SNB-75
SR = system: SR
SW-620 = system: SW-620
HT-29 = system: HT-29
SK-OV-3 = system: SK-OV-3
LOX IMVI = system: LOX IMVI
A549 = system: A549
SNB-19 = system: SNB-19
A498 = system: A498

Measured: GI50

Nc1ccc(S(=O)(=O)Nc2nc3ccccc3nc2N2CCCCCC2)cc1
inactive: 786-0 30.2 µM | TK-10 31.8 µM | RXF 393 16 µM | M14 37.2 µM | KM12 30.9 µM | ACHN 35.9 µM | U-251 20.2 µM | HCT-116 16.6 µM | SF-539 18.5 µM | NCI-H23 9.06 µM | SK-MEL-2 20 µM | SNB-75 50.8 µM | SR 12.5 µM | SW-620 20 µM | HT-29 33.3 µM | SK-OV-3 33.6 µM | LOX IMVI 17.3 µM | A549 27.7 µM | SNB-19 32.7 µM

CSc1nn(C)cc2ncnc1-2
active: SNB-75 0.206 µM
inactive: 786-0 > 100 µM | TK-10 > 100 µM | RXF 393 > 100 µM | M14 > 100 µM | KM12 > 100 µM | ACHN > 100 µM | U-251 > 100 µM | HCT-116 > 100 µM | SF-539 > 100 µM | NCI-H23 > 100 µM | SK-MEL-2 > 100 µM | A498 > 100 µM | SR 97.1 µM | SW-620 > 100 µM | HT-29 > 100 µM | A549 > 100 µM | SNB-19 > 100 µM

CCOC(=O)n1c2ccccc2c2c(O)c(OC)c3c(c21)C(=O)NC3=O
inactive: 786-0 19.5 µM | TK-10 52.1 µM | M14 25.8 µM | KM12 50.8 µM | ACHN 19.8 µM | U-251 32 µM | HCT-116 20.1 µM | SF-539 57.5 µM | NCI-H23 52.5 µM | SK-MEL-2 > 100 µM | A498 78.7 µM | SNB-75 37.8 µM | SR 20.5 µM | SW-620 35.5 µM | HT-29 24 µM | SK-OV-3 34.6 µM | LOX IMVI 15.2 µM | A549 38.5 µM | SNB-19 84.5 µM

CCOc1c(OC)cc(CNNc2nccs2)cc1OC
inactive: 786-0 > 100 µM | TK-10 > 100 µM | RXF 393 > 100 µM | M14 42.1 µM | KM12 > 100 µM | ACHN > 100 µM | U-251 32.7 µM | HCT-116 > 100 µM | SF-539 > 100 µM | NCI-H23 62.4 µM | A498 > 100 µM | SNB-75 34.8 µM | SR 29.5 µM | SW-620 > 100 µM | HT-29 > 100 µM | LOX IMVI 47.2 µM | A549 60 µM | SNB-19 > 100 µM

O=C(CC(=O)c1ccc([N+](=O)[O-])cc1)C(=O)Nc1nccs1
inactive: 786-0 > 100 µM | TK-10 > 100 µM | RXF 393 > 100 µM | M14 > 100 µM | KM12 > 100 µM | ACHN > 100 µM | U-251 > 100 µM | SF-539 > 100 µM | NCI-H23 > 100 µM | SK-MEL-2 > 100 µM | SNB-75 > 100 µM | SR > 100 µM | SW-620 > 100 µM | HT-29 > 100 µM | SK-OV-3 > 100 µM | LOX IMVI > 100 µM | A549 > 100 µM | SNB-19 > 100 µM

Cn1nc2ccc3nccc(NCCNCCCl)c3c2n1
inactive: TK-10 > 100 µM | RXF 393 > 100 µM | M14 > 100 µM | KM12 > 100 µM | ACHN > 100 µM | HCT-116 > 100 µM | SF-539 > 100 µM | SK-MEL-2 > 100 µM | SNB-75 > 100 µM | SR > 100 µM | SW-620 > 100 µM | HT-29 > 100 µM | SK-OV-3 > 100 µM | LOX IMVI > 100 µM | A549 > 100 µM | SNB-19 > 100 µM

CC(C)(C)c1cc(S(=O)(=O)O)c2oc(-c3ccccc3)cc(=O)c2c1
inactive: 786-0 > 100 µM | TK-10 > 100 µM | RXF 393 > 100 µM | KM12 > 100 µM | ACHN > 100 µM | U-251 > 100 µM | HCT-116 > 100 µM | SF-539 > 100 µM | NCI-H23 > 100 µM | SNB-75 > 100 µM | SR > 100 µM | SW-620 > 100 µM | HT-29 > 100 µM | LOX IMVI > 100 µM | A549 > 100 µM | SNB-19 > 100 µM

COC(=O)CP1(=O)OC2C(C3CCC2(C)C3(C)C)N1c1cc(C(F)(F)F)cc(C(F)(F)F)c1 (stereo not drawn)
inactive: 786-0 18.2 µM | TK-10 24.7 µM | M14 32.3 µM | KM12 17.1 µM | ACHN > 100 µM | U-251 26.1 µM | HCT-116 12.6 µM | SF-539 21.9 µM | NCI-H23 26.6 µM | SK-MEL-2 20.9 µM | A498 > 100 µM | SNB-75 15.7 µM | SR 24.8 µM | SW-620 24.1 µM | HT-29 26.1 µM | SK-OV-3 33.4 µM | LOX IMVI 22.4 µM | A549 30 µM | SNB-19 32.7 µM

CC1(C)OC(=O)C(c2ccsc2)C(=O)O1
inactive: 786-0 > 100 µM | TK-10 > 100 µM | RXF 393 > 100 µM | M14 > 100 µM | KM12 > 100 µM | ACHN > 100 µM | U-251 > 100 µM | HCT-116 > 100 µM | SF-539 > 100 µM | NCI-H23 > 100 µM | SK-MEL-2 > 100 µM | SNB-75 > 100 µM | SR > 100 µM | SW-620 > 100 µM | HT-29 > 100 µM | SK-OV-3 > 100 µM | LOX IMVI > 100 µM | A549 > 100 µM | SNB-19 > 100 µM

COc1cc([N+](=O)[O-])ccc1NC(=O)C(F)(F)F
inactive: 786-0 > 100 µM | TK-10 > 100 µM | M14 > 100 µM | KM12 97.9 µM | ACHN > 100 µM | U-251 > 100 µM | HCT-116 > 100 µM | SF-539 > 100 µM | NCI-H23 > 100 µM | SK-MEL-2 > 100 µM | A498 > 100 µM | SNB-75 > 100 µM | SR > 100 µM | SW-620 > 100 µM | HT-29 65.3 µM | SK-OV-3 > 100 µM | LOX IMVI > 100 µM | A549 > 100 µM | SNB-19 > 100 µM

COc1cc([N+](=O)[O-])c(S(=O)(=O)O)cc1N
inactive: 786-0 > 100 µM | TK-10 > 100 µM | M14 > 100 µM | KM12 > 100 µM | ACHN > 100 µM | U-251 > 100 µM | HCT-116 > 100 µM | SF-539 > 100 µM | NCI-H23 > 100 µM | SK-MEL-2 > 100 µM | A498 > 100 µM | SNB-75 > 100 µM | SR > 100 µM | SW-620 > 100 µM | HT-29 > 100 µM | SK-OV-3 > 100 µM | LOX IMVI > 100 µM | A549 > 100 µM | SNB-19 > 100 µM

Cn1cnc(N2CCCC2)c(C#N)c1=S
inactive: 786-0 > 100 µM | TK-10 > 100 µM | RXF 393 > 100 µM | M14 > 100 µM | KM12 > 100 µM | ACHN > 100 µM | U-251 > 100 µM | HCT-116 > 100 µM | SF-539 > 100 µM | NCI-H23 > 100 µM | SK-MEL-2 > 100 µM | A498 > 100 µM | SR > 100 µM | SW-620 > 100 µM | HT-29 > 100 µM | LOX IMVI > 100 µM | A549 > 100 µM | SNB-19 > 100 µM

O=c1cc(-c2ccccc2)oc2cc(OCCCOc3ccc4c(=O)cc(-c5ccccc5)oc4c3)ccc12
inactive: 786-0 > 100 µM | TK-10 > 100 µM | RXF 393 > 100 µM | M14 > 100 µM | KM12 > 100 µM | ACHN > 100 µM | U-251 > 100 µM | HCT-116 > 100 µM | SF-539 > 100 µM | NCI-H23 > 100 µM | SK-MEL-2 > 100 µM | SNB-75 47.2 µM | SR > 100 µM | SW-620 > 100 µM | HT-29 > 100 µM | SK-OV-3 > 100 µM | LOX IMVI > 100 µM | A549 > 100 µM | SNB-19 > 100 µM

NCCCn1c2ccccc2c2c3c(c4c(c21)CCC(O)CC4)C(=O)NC3=O (stereo not drawn)
inactive: 786-0 2.92 µM | TK-10 3.57 µM | RXF 393 2.15 µM | M14 4.48 µM | ACHN 1.79 µM | U-251 1.75 µM | HCT-116 1.88 µM | SF-539 6.61 µM | NCI-H23 2.45 µM | SK-MEL-2 10.4 µM | A498 9.38 µM | SR 1.69 µM | A549 4.86 µM
active: KM12 0.458 µM | SW-620 1.04 µM | HT-29 0.729 µM | LOX IMVI 1.01 µM

CCCC(=O)Oc1cc(OC(=O)CCC)c2c(C)cc(=O)oc2c1
inactive: 786-0 82.6 µM | TK-10 > 100 µM | M14 > 100 µM | KM12 32.5 µM | ACHN > 100 µM | U-251 78.3 µM | HCT-116 50.1 µM | SF-539 21.8 µM | NCI-H23 71 µM | SK-MEL-2 > 100 µM | A498 46.1 µM | SNB-75 52.4 µM | SR 18.5 µM | SW-620 49.9 µM | HT-29 36.5 µM | SK-OV-3 > 100 µM | LOX IMVI 40.1 µM | A549 92.9 µM | SNB-19 > 100 µM
